Assay results taken from patent US6737383B1, “Herbicidal oxadiazolidines” (priority 1999, dated 2004).

Legend:
[1] = system: bedstraw; test: Test B pre/postemergence bedstraw; assay type: in vivo, Galium aparine
In short: (§1)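 Test chemicals in a non-phytotoxic solvent mixture with surfactant were sprayed preemergence onto planted seeds and postemergence onto plants 2 to 18 cm tall (1- to 4-leaf stage). After twelve to sixteen days in a greenhouse, injury was visually rated against untreated controls from 0 (no effect) to 10 (complete control).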

[2] = system: wild oat; test: Test B pre/postemergence wild oat; assay type: in vivo, Avena fatua
In short: as §1

[3] = system: surinam grass; test: Test B pre/postemergence surinam grass; assay type: in vivo, Brachiaria decumbens
In short: as §1

[4] = system: bamyardgrass; test: Test B flood test barnyardgrass; assay type: in vivo, Echinochloa crus-galli
In short: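 Read-out is a visual response score from 0 (no effect) to 10 (complete control), assigned by comparison with untreated controls. Treatment was applied at the 2-leaf stage, and plants stayed in the greenhouse for twelve to sixteen days before scoring.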

[5] = Postemergence, Rate 125 g/ha, scale 0 to 10, 0 is no effect, 10 is complete control
[6] = Postemergence, Rate 250 g/ha, scale 0 to 10, 0 is no effect, 10 is complete control
[7] = Preemergence, Rate 62 g/ha, scale 0 to 10 (0 no effect, 10 complete control)
[8] = Preemergence, Rate 250 g/ha, scale of 0 to 10 where 0 is no effect and 10 is complete control
[9] = Preemergence, Rate 500 g/ha, scale of 0 to 10 where 0 is no effect and 10 is complete control
[10] = Rate 62 g/ha, Postemergence, scale of 0 to 10 where 0 is no effect and 10 is complete control
[11] = Rate 500 g/ha, Postemergence, scale 0 to 10, 0 no effect, 10 complete control
[12] = Postemergence, Rate 250 g/ha, scale 0 to 10
[13] = Postemergence, Rate 500 g/ha, scale of 0 to 10 where 0 is no effect and 10 is complete control
[14] = Rate 125 g/ha, Postemergence, scale 0 to 10, 0 is no effect, 10 is complete control
[15] = Preemergence, Rate 125 g/ha, scale of 0 to 10 where 0 is no effect and 10 is complete control

CCOc1nc(C(F)(F)F)c(Cn2c(=O)on(C(=O)N(c3ccc(F)cc3)C(C)C)c2=O)s1 [Compound 381]
0: Plant response rating, Bedstraw [1, 5] | Plant response rating, Bedstraw [1, 6] | Plant response rating, Bedstraw [1, 7] | Bedstraw plant response rating (0 to 10 scale) ([1]; Preemergence, Rate 125 g/ha) | Bedstraw plant response rating [1, 8] | Bedstraw plant response rating [1, 9] | Bedstraw plant response rating [1, 10] | Plant response rating, Bedstraw [1, 11] | Plant response rating, Wild oats [2, 5] | Plant response rating, Wild oats [2, 6] | Plant response rating, Wild oats [2, 7] | Wild oats plant response rating (0 to 10 scale) ([2]; Preemergence, Rate 125 g/ha) | Wild oats plant response rating [2, 8] | Wild oats plant response rating [2, 9] | Wild oats plant response rating [2, 10] | Plant response rating, Wild oats [2, 11] | Plant response rating, B. signalgrass [3, 5] | Plant response rating, B. signalgrass [3, 6] | Plant response rating, B. signalgrass [3, 7] | B. signalgrass plant response rating (0 to 10 scale, 0 is no effect, 10 is complete control) ([3]; Preemergence, Rate 125 g/ha) | B. signalgrass plant response rating [3, 8] | B. signalgrass plant response rating [3, 9] | B. signalgrass plant response rating [3, 10] | Plant response rating, B. signalgrass [3, 11] | Plant response rating, Barnyardgrass (0 to 10 scale, 0 is no effect, 10 is complete control) ([4]; Rate 62 g/ha, flood test species, Pre-emergence, visual evaluation after twelve to sixteen days) | Barnyardgrass plant response rating (0 to 10 scale, 0 is no effect, 10 is complete control) ([4]; Rate 125 g/ha, under heading Pre-emergence, flood test species, visual evaluation after twelve to sixteen days) | Barnyardgrass plant response rating ([4]; Rate 250 g/ha, Pre-emergence, flood-test species, scale 0 to 10, 0 is no effect, 10 is complete control) | Barnyardgrass plant response rating ([4]; Rate 500 g/ha, Pre-emergence, flood test species, scale 0 to 10 (0 no effect, 10 complete control))

CC(C)N(C(=O)n1oc(=O)n(C[Si](C)(C)c2ccccc2)c1=O)c1ccc(Cl)cc1 [Compound 424]
0: Bedstraw plant response rating [1, 12] | Bedstraw plant response rating [1, 13] | Bedstraw plant response rating [1, 10] | Bedstraw plant response rating [1, 14] | Wild oats plant response rating [2, 12] | Wild oats plant response rating [2, 13] | Plant response rating, Wild oats [2, 7] | Plant response rating, Wild oats [2, 15] | Wild oats plant response rating ([2]; Preemergence, Rate 250 g/ha, scale 0 to 10, 0 is no effect, 10 is complete control) | Wild oats plant response rating ([2]; Preemergence, Rate 500 g/ha, scale 0 to 10, 0 is no effect, 10 is complete control) | Wild oats plant response rating [2, 14] | B. signalgrass plant response rating ([3]; Postemergence, Rate 250 g/ha, scale 0 to 10, 0 no effect, 10 complete control) | B. signalgrass plant response rating [3, 13] | Plant response rating, B. signalgrass [3, 7] | Plant response rating, B. signalgrass [3, 15] | B. signalgrass plant response rating [3, 8] | B. signalgrass plant response rating [3, 9] | B. signalgrass plant response rating [3, 10] | B. signalgrass plant response rating [3, 14] | Barnyardgrass plant response rating ([4]; Postemergence block (flood test species), Rate 250 g/ha, scale 0 to 10) | Barnyardgrass plant response rating ([4]; Postemergence section (flood test species), Rate 500 g/ha, scale of 0 to 10 where 0 is no effect and 10 is complete control) | Barnyardgrass plant response rating ([4]; Rate 62 g/ha, Postemergence (flood test species), scale of 0 to 10 where 0 is no effect and 10 is complete control) | Barnyardgrass plant response rating ([4]; Rate 125 g/ha, Postemergence section (flood test species), scale 0 to 10, 0 is no effect, 10 is complete control)
